From patent publication US20240239811A1, “5-(5-(PIPERIDIN-4-YL)THIENO[3,2-C]PYRAZOL-2-YL]INDAZOLE DERIVATIVES AND RELATED COMPOUNDS AS MODULATORS FOR SPLICING NUCLEIC ACIDS AND FOR THE T” (REMIX THERAPEUTICS INC., priority 2020, published 2024)

Assays:
Type in all cases: cell-based
HTT mRNA = experiment: Splicing assay (RT-qPCR) monitoring HTT splice variants, canonical (CJ) and alternative (AJ) junction; conditions: 50% response, A673 or K562 cell line, 24 hours; for IC50: decrease in CJ mRNA; for AC50: increase in AJ mRNA
Method: (§1) Compounds described herein were used to modulate RNA transcript abundance in cells. The expression of a target mRNA was measured by detecting the formation of an exon-exon junction in the canonical transcript (CJ). A compound mediated exon-inclusion event was detected by observing an increase in formation of a new junction with an alternative exon (AJ). Real-time qPCR assays were used to detect these splicing switches and interrogate the potency of various compounds towards different target genes. A high-throughput real time quantitative PCR (RT-qPCR) assay was developed to measure these two isoforms of the mRNA (CJ and AJ) for an exemplary gene, HTT, together with a control housekeeping gene, GAPDH or GUSB or PPIA, used for normalization. Briefly, the A673 or K562 cell line was treated with various compounds described herein (e.g., compounds of Formula (I)). After treatment, the levels of the HTT mRNA targets were determined from each sample of cell lysate by cDNA synthesis followed by qPCR.
• Cells-to-CT 1-step kit: ThermoFisher A25602, Cells-to-CT lysis reagent: ThermoFisher 4391851C, TaqMan™ Fast Virus 1-Step Master Mix: ThermoFisher 4444436 • GAPDH: VIC-PL, ThermoFisher 4326317E (Assay: Hs99999905_ml)—used for K562/suspension cell lines • GUSB: VIC-PL, ThermoFisher 4326320E (Assay: Hs99999908_ml)—used for K562/suspension cell lines • PPIA: VIC-PL, ThermoFisher 4326316E (Assay: Hs99999904_ml)—used for A673/adherent cell lines
(§2) The A673 cell line was cultured in DMEM with 10% FBS. Cells were diluted with full growth media and plated in a 96-well plate (15,000 cells in 100ul media per well). The plate was incubated at 37° C. with 5% CO2 for 24 hours to allow cells to adhere. An 11-point 3-fold serial dilution of the compounds was made in DMSO then diluted in media in an intermediate plate. Compounds were transferred from the intermediate plate to the cell plate with the top dose at a final concentration of 10 uM in the well. Final DMSO concentration was kept at or below 0.25%. The cell plate was returned to the incubator at 37° C. with 5% CO2 for an additional 24 hours.
(§3) The K562 cell line was cultured in IMDM with 10% FBS. For K562, cells were diluted with full growth media and plated in either a 96-well plate (50,000 cells in 50 uL media per well) or a 384-well plate (8,000-40,000 cells in 45 uL media per well). An 11-point 3-fold serial dilution of the compounds were made in DMSO then diluted in media in an intermediate plate. Compound was transferred from the intermediate plate to the cell plate with the top dose at a final concentration of 10 uM in the well. Final DMSO concentration was kept at or below 0.25%. Final volume was 100 uL for 96-well plate and 50 uL for 384-well plate. The cell plate was then placed in an incubator at 37° C. with 5% CO2 for 24 hours.
The cells were then gently washed with 50 uL-100 uL cold PBS before proceeding to addition of lysis buffer. 30 uL-50 uL of room temperature lysis buffer with DNAse I (and optionally RNAsin) was added to each well. Cells were shaken/mixed thoroughly at room temperature for 5-10 minutes for lysis to take place and then 3 uL-5 uL of room temperature stop solution was added and wells were shaken/mixed again. After 2-5 minutes, the cell lysate plate was transferred to ice for RT-qPCR reaction setup. The lysates could also be frozen at −80° C. for later use.
In some cases, a direct lysis buffer was used. An appropriate volume of 3X lysis buffer (10 mM Tris, 150 mM NaCl, 1.5%-2.5% Igepal and 0.1-1 U/uL RNAsin, pH 7.4) was directly added to either K562 or A673 cells in media and mixed by pipetting 3 times. The plates were then incubated at room temperature with shaking/rocking for 20-50 minutes to allow for lysis to take place. After this time, the cell lysate plate was transferred to ice to set up for the RT-qPCR reactions. The lysates could also be frozen at −80° C. for later use. […]

Target C CJ mRNA = experiment: Gene panel canonical junction qPCR assay, Target C; conditions: Table 6, decrease in CJ mRNA, read-out: Target C IC50 (decrease in CJ mRNA levels)
Method: as §1, §2, §3
(§4) The data analysis was performed by first determining the ΔCt vs the housekeeper gene. This ΔCt was then normalized against the DMSO control (ΔΔCt) and converted to RQ (relative quantification) using the 2^(−ΔΔCt) equation. The RQ were then converted to a percentage response by arbitrarily setting an assay window of 3.5 ΔCt for HTT-CJ and an assay window of 9 ΔCt for HTT-AJ. […] The percentage response was then fitted to the 4 parametric logistic equation to evaluate the concentration dependence of compound treatment. The increase in AJ mRNA is reported as AC50 (compound concentration having 50% response in AJ increase) while the decrease in CJ mRNA levels is reported as IC50 (compound concentration having 50% response in CJ decrease).
(§5) Additional studies were carried out for a larger panel of genes using the protocol provided above. The junction between flanking upstream and downstream exons was used to design canonical junction qPCR assays. At least one of the forward primer, reverse primer or the CY5-labeled 5′ nuclease probe (with 3′ quencher such as ZEN/Iowa Black FQ) was designed to overlap with the exon junction to capture the CJ mRNA transcript. BLAST was used to confirm the specificity of the probeset and parameters such as melting temperature, GC content, amplicon size, and primer dimer formation are considered during their design. Data for the decrease in CJ mRNA levels for three exemplary genes (HTT, SMN2, and Target C) analyzed in this panel are reported as IC50 (compound concentration having […] in CJ decrease).

HTT CJ mRNA = experiment: Gene panel canonical junction qPCR assay, HTT; conditions: Table 6, decrease in CJ mRNA, read-out: HTT IC50 (decrease in CJ mRNA levels)
Method: as §1, §2, §3, §4, §5

SMN2 CJ mRNA = experiment: Gene panel canonical junction qPCR assay, SMN2; conditions: Table 6, decrease in CJ mRNA, read-out: SMN2 IC50 (decrease in CJ mRNA levels)
Method: as §1, §2, §3, §4, §5

Cc1cn2cc(-n3cc4cc(C5CCNCC5)sc4n3)cc(C)c2n1 [Compound 155]
IC50 (HTT mRNA): 100 to 1000 nM | AC50 (HTT mRNA): 100 to 1000 nM | IC50 (Target C CJ mRNA): 1000 to 10000 nM | IC50 (HTT CJ mRNA): 100 to 1000 nM | IC50 (SMN2 CJ mRNA): < 100 nM

COc1c(-c2cc3cn(C4CCNCC4)nc3s2)nn2cc(C)nc(C)c12 [Compound 219, 4-(5-{3-methoxy-4,6-dimethylpyrazolo[1,5-a]pyrazin-2-yl}thieno[2,3-c]pyrazol-2-yl) piperidine]
IC50 (HTT mRNA): > 10000 nM | AC50 (HTT mRNA): > 10000 nM | IC50 (Target C CJ mRNA): > 10000 nM | IC50 (HTT CJ mRNA): > 10000 nM | IC50 (SMN2 CJ mRNA): 1000 to 10000 nM

Cn1cc2c(F)cc(-c3nc4sc(C5CCNCC5)cc4s3)cc2n1 [Compound 131, 4-fluoro-2-methyl-6-[5-(piperidin-4-yl)thieno[2,3-d][1,3]thiazol-2-yl]indazole]
IC50 (HTT mRNA): 1000 to 10000 nM | AC50 (HTT mRNA): 1000 to 10000 nM | IC50 (Target C CJ mRNA): 1000 to 10000 nM | IC50 (HTT CJ mRNA): 1000 to 10000 nM | IC50 (SMN2 CJ mRNA): 1000 to 10000 nM

CN1CCN(c2cc3sc(-c4cc(F)c5nn(C)cc5c4)nc3s2)CC1 [Compound 141, 7-fluoro-2-methyl-5-[5-(4-methylpiperazin-1-yl)thieno[2,3-d][1,3]thiazol-2-yl]indazole]
IC50 (HTT mRNA): 100 to 1000 nM | AC50 (HTT mRNA): 100 to 1000 nM | IC50 (Target C CJ mRNA): 1000 to 10000 nM | IC50 (HTT CJ mRNA): 100 to 1000 nM | IC50 (SMN2 CJ mRNA): < 100 nM

Cn1cc2cc(-c3cc4cn(C5CCNCC5)nc4s3)ncc2n1 [Compound 214]
IC50 (HTT mRNA): 1000 to 10000 nM | AC50 (HTT mRNA): 100 to 1000 nM | IC50 (Target C CJ mRNA): 1000 to 10000 nM | IC50 (HTT CJ mRNA): 1000 to 10000 nM | IC50 (SMN2 CJ mRNA): 100 to 1000 nM

Cc1cn2nc(-c3nc4sc(C5CNC5)cc4s3)cc(C)c2n1 [Compound 235, 3-(2-{2,8-dimethylimidazo[1,2-b]pyridazin-6-yl}thieno[2,3-d] [1,3]thiazol-5-yl) azetidine]
IC50 (HTT mRNA): 1000 to 10000 nM | AC50 (HTT mRNA): 1000 to 10000 nM | IC50 (Target C CJ mRNA): 1000 to 10000 nM | IC50 (HTT CJ mRNA): 1000 to 10000 nM | IC50 (SMN2 CJ mRNA): 100 to 1000 nM

CN1CCCC2(CCN2c2cc3sc(-c4cc(F)c5nn(C)cc5c4)nc3s2)C1 (stereo not drawn) [Compound 203, 1-[2-(7-fluoro-2-methylindazol-5-yl)thieno[2,3-d][1,3]thiazol-5-yl]-6-methyl-1,6-diazaspiro[3.5]nonane]
IC50 (HTT mRNA): > 10000 nM | AC50 (HTT mRNA): > 10000 nM | IC50 (Target C CJ mRNA): > 10000 nM | IC50 (HTT CJ mRNA): > 10000 nM | IC50 (SMN2 CJ mRNA): 1000 to 10000 nM

Cn1cc2cc(-n3cc4cc(C5CCNCC5)sc4n3)c(O)cc2n1 [Compound 220]
IC50 (HTT mRNA): 1000 to 10000 nM | AC50 (HTT mRNA): 1000 to 10000 nM | IC50 (Target C CJ mRNA): 1000 to 10000 nM | IC50 (HTT CJ mRNA): 1000 to 10000 nM | IC50 (SMN2 CJ mRNA): 1000 to 10000 nM

CC1CN(c2cc3sc(-c4cc(F)c5nn(C)cc5c4)nc3s2)CCN1C (stereo not drawn) [Compound 128, 5-[5-(3,4-dimethylpiperazin-1-yl)thieno[2,3-d][1,3]thiazol-2-yl]-7-fluoro-2-methylindazole]
IC50 (HTT mRNA): 1000 to 10000 nM | AC50 (HTT mRNA): 1000 to 10000 nM | IC50 (Target C CJ mRNA): 1000 to 10000 nM | IC50 (HTT CJ mRNA): 1000 to 10000 nM | IC50 (SMN2 CJ mRNA): 100 to 1000 nM

Cc1cn2cc(-n3cc4sc(C5CCNCC5)cc4n3)ncc2n1 [Compound 169]
IC50 (HTT mRNA): 1000 to 10000 nM | AC50 (HTT mRNA): 1000 to 10000 nM | IC50 (Target C CJ mRNA): 1000 to 10000 nM | IC50 (HTT CJ mRNA): 1000 to 10000 nM | IC50 (SMN2 CJ mRNA): 1000 to 10000 nM

c1n[nH]cc1-n1cc2cc(C3CCNCC3)sc2n1 [Compound 180]
IC50 (HTT mRNA): > 10000 nM | AC50 (HTT mRNA): > 10000 nM | IC50 (Target C CJ mRNA): > 10000 nM | IC50 (HTT CJ mRNA): > 10000 nM | IC50 (SMN2 CJ mRNA): > 10000 nM

Cn1cc2c(F)cc(-n3cc4cc(C5CCNCC5)sc4n3)cc2n1 [Compound 174]
IC50 (HTT mRNA): > 10000 nM | AC50 (HTT mRNA): > 10000 nM | IC50 (Target C CJ mRNA): > 10000 nM | IC50 (HTT CJ mRNA): > 10000 nM | IC50 (SMN2 CJ mRNA): 1000 to 10000 nM

CN(C)C1CCN(c2cc3sc(-c4cc(F)c5nn(C)cc5c4)nc3s2)CC1 [Compound 154, 1-[2-(7-fluoro-2-methylindazol-5-yl)thieno[2,3-d][1,3]thiazol-5-yl]-N,N-dimethylpiperidin-4-amine]
IC50 (HTT mRNA): 100 to 1000 nM | AC50 (HTT mRNA): 100 to 1000 nM | IC50 (Target C CJ mRNA): 100 to 1000 nM | IC50 (HTT CJ mRNA): 100 to 1000 nM | IC50 (SMN2 CJ mRNA): < 100 nM

Cc1cn2nc(-n3cc4cc(C5CCNCC5)sc4n3)cc(C)c2n1 [Compound 110, 4-(2-[2,8-dimethylimidazo[1,2-b]pyridazin-6-yl]thieno[2,3-c]pyrazol-5-yl) piperidine]
IC50 (HTT mRNA): 100 to 1000 nM | AC50 (HTT mRNA): 100 to 1000 nM | IC50 (HTT CJ mRNA): 100 to 1000 nM | IC50 (SMN2 CJ mRNA): < 100 nM

Cn1cc2cc(-c3cc4nn(C5CCNCC5)cc4s3)cc(F)c2n1 [Compound 121, 7-fluoro-2-methyl-5-[2-(piperidin-4-yl)thieno[3,2-c]pyrazol-5-yl]indazole]
IC50 (HTT mRNA): 100 to 1000 nM | AC50 (HTT mRNA): 100 to 1000 nM | IC50 (HTT CJ mRNA): 100 to 1000 nM | IC50 (SMN2 CJ mRNA): < 100 nM

Cn1cc2cc(-c3cc4cn([C@H]5CCNC[C@@H]5F)nc4s3)cc(F)c2n1 [Compound 190]
IC50 (HTT mRNA): 100 to 1000 nM | AC50 (HTT mRNA): 100 to 1000 nM | IC50 (HTT CJ mRNA): 100 to 1000 nM

Cn1cc2cc(-n3cc4sc(C5CCNCC5)cc4n3)ccc2n1 [Compound 100, 2-methyl-5-[5-(piperidin-4-yl)thieno[3,2-c]pyrazol-2-yl]indazole]
AC50 (HTT mRNA): 1000 to 10000 nM | IC50 (Target C CJ mRNA): > 10000 nM
